The values that follow come from patent US20180251765A1, “HIGH-THROUGHPUT SPLIT APTAMER SCREENING ASSAY” (BELLBROOK LABS, priority 2015, published 2018).

Data set [1] deals with histone H4 acetylated at lysine 16 (H4K16Ac) (Homo sapiens, UniProt P62805). As to conditions: cited from earlier work.
The test system of another data set is Dar-1 riboswitch. The experiment in a line: SAH dependent switch with FP readout, intact riboswitch with fluor-labeled oligo. It is filed as binding, D. aromatica. The following applies: for EC50: FP dose response. The text has this:
(§1) The native riboswitch signaling mechanism was first leveraged by transducing the conformational switch that occurs upon SAH binding into a fluorescent signal. The goal was to identify an oligonucleotide that would bind to the riboswitch specifically when SAH was present due to the localized conformational disruption it causes (FIG. 3A). Using two well characterized riboswitches, Ref-1 (SEQ ID NO:1) and Dar-1 (SEQ ID NO:4) (Wang et al., 2008, Mol. Cell. 29(6):691-702), an unbiased, empirical approach was taken by testing a panel of 8-10 bp oligos that covered the entire sequence of each riboswitch. The oligos were labeled with fluors at the 5′ end so that binding could be detected by the increase in fluorescence polarization.
A robust, dose dependent FP shift under optimized conditions was observed, which was quite reproducible. However, the affinity of the riboswitch for SAH was much lower than the low nanomolar level expected, and it decreased further over time (see FIG. 3B and inset table for representative data with Dar-1). […] Moreover, the selectivity for SAH vs. SAM was much poorer than expected, less than 50-fold for both Dar-1 and Ref-1 rather than the 1000-fold-plus selectivity reported for the native riboswitch (Wang et al., 2008, Mol. Cell. 29(6):691-702). Despite significant effort to understand and eliminate the unstable nature of the SAH-riboswitch interaction, including confirming that both the riboswitch and the SAH were not degrading over time, a stable, high affinity SAH dependent signal was unable to be obtained. Thus, a split aptamer approach was next explored.

The subject of another data set is Ref-1 riboswitch. The description is as above. The following applies: intact Ref-1. It is filed as binding, R. ferrireducens.
Excerpt: as §1
A robust, dose dependent FP shift under optimized conditions was observed, which was quite reproducible. However, the affinity of the riboswitch for SAH was much lower than the low nanomolar level expected, and it decreased further over time (see FIG. 3B and inset table for representative data with Dar-1). […] Moreover, the selectivity for SAH vs. SAM was much poorer than expected, less than 50-fold for both Dar-1 and Ref-1 rather than the 1000-fold-plus selectivity reported for the native riboswitch (Wang et al., 2008, Mol. Cell. 29(6):691-702). […]

The test system of data set [2] is split Dar-1 riboswitch (P152/P218). The experiment in a line: split aptamer SAH FP assay. It is filed as binding, D. aromatica. The method, then:
Based on the predicted folding of the Dar-1 sequence and imputed SAH binding interactions (Wang et al., 2008, Mol Cell. 29(6):691-702), two versions of a split Dar-1 riboswitch were tested, comprised of either a 59 or 52 base 5′ element (P159 of SEQ ID NO:6 or P152 of SEQ ID NO:7) and the remaining 18 base 3′ element (P218 of SEQ ID NO:8). […] For simplicity, EC50 values were used as an approximation of ligand dissociation constants, or Kd. […] This is the first example of a split aptamer sensor with FP readout.
Selectivity vs. SAM is a critical parameter, as measurement of HMT enzyme activity requires detection of SAH in an excess of SAM. […] Thus, the selectivity for SAH is at least 200-fold and likely higher; however, measurements are limited by contamination of SAM with SAH. The combination of sensitivity and selectivity is reflected in a standard curve mimicking an HMT enzyme reaction, in which 200 nM SAM was decreased as SAH was added proportionately (FIG. 4D). To quantitatively assess the robustness of the split aptamer FP assay, the standard curve was done with sixteen replicates to allow determination of Z′ values, a commonly used HTS assay statistic that measures that incorporates both dynamic range and data variability (Zhang et al., 1999, J Biomol. Screen. 4(2):67-73). […] The Z′ measured in this Example was 0.56, indicative of a high quality assay.

For data set [3], the system named is split SAH aptamer P152/P218, Tb construct. The experiment in a line: split aptamer SAH TR-FRET assay, Tb construct. It is filed as binding, D. aromatica. As to the method:
The split aptamer SAH detection assay was next formatted for TR-FRET readout. Luminescent lanthanides were attached to P152 of the SAH aptamer via streptavidin-biotin, and organic acceptor fluors were attached to P218 during synthesis. Both Tb and Eu lanthanide chelates (Life Technologies) were tested, as were four different organic fluors with excitation spectra overlapping the lanthanide emission (Alexa 633, Alexa 647, Cy5, and Dylight 650.)
Importantly, the signal was stable for at least 15 h.
A general note: TR-FRET usually uses a lanthanide donor and a delayed reading to cut background.

For data set [4], the system named is split SAH aptamer P152/P218, Eu construct. The data set can be described thus: split aptamer SAH TR-FRET assay, Eu construct. It is filed as binding, D. aromatica.
Data set [5] has as its target SAH riboswitch from D. aromatica. As to conditions: cited from earlier work.
Data set [6] concerns the target SAH riboswitch from R. soanacearum. The following applies: isothermal titration calorimetry; cited from earlier work.
For data set [7], the target named is dimethyl Arg in Histone H3 (H3R8Me2) (Homo sapiens, UniProt P68431). As to conditions: cited from earlier work.
A further data set has as its target PRMT1 (Homo sapiens, UniProt Q99873). The following applies: read-out: Km (SAM); plot of velocity vs. SAM, FIG. 5F.
The subject of data set [8] is RNA aptamer for theophylline. As to conditions: on the basis of a single methyl group; cited from earlier work.

Where two headings read alike, the source gives them in different places.

Sequence of PRMT1 (Q99873 whole entry, species assumed): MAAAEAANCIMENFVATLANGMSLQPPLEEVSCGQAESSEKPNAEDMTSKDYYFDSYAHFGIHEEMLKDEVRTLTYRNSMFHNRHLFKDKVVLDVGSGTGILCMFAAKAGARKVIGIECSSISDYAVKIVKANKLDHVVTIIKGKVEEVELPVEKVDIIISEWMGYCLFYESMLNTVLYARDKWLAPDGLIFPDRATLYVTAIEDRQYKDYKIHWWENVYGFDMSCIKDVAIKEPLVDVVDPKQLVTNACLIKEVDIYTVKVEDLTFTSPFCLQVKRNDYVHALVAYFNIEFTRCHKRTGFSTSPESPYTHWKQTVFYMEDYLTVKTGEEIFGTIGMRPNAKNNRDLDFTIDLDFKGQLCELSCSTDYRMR

Take “H4K16Ac aptamer: 48 base DNA aptamer for histone H4 acetylated at lysine 16 (AGACGTAAGTTAATTGGACTTGGTCGTGTGCGGCACAGCGATTGAAAT; DNA, backbone and methylation of C not given here)”: the “selectivity versus Histone H4 acetylation at K8 or unmodified Histone H4 sequence” value in data set [1] was “more than 2,000 fold”. The Kd in data set [1] (read-out: Kd for target PTM) was 21 nM.
What is called EC50 is the concentration needed to bring the measured effect to its halfway point. Take `Nc1ncnc2c1ncn2[C@@H]1O[C@H](CSCC[C@H](N)C(=O)O)[C@@H](O)[C@H]1O` [SAH, S-adenosylhomocysteine]: the EC50 in the data set on Dar-1 riboswitch (after 3 h, read-out: EC50 for SAH after 3 h) is 1900 nM; with Dar-1 riboswitch (initial reading, read-out: initial EC50 for SAH), 472 nM; in data set [2] (from FP dose response curves FIG. 4B, used as approximation of Kd), 20 to 25 nM; in data set [3], 23 nM; in [4], 16 nM. Also, the “selectivity for SAH vs. SAM” value in the data set on Dar-1 riboswitch (intact Dar-1) is on record as “less than 50 fold”; in the data set on Ref-1 riboswitch, “less than 50 fold”; in data set [2] (limited by contamination of SAM with SAH) it was “at least 200 fold”. Moreover, the Kd is 20 nM in [5] (equilibrium binding analysis) and 30 nM in [6].
For “H3R8Me2 aptamer: 50 base RNA aptamer developed for dimethyl Arg in Histone H3 (GAUGGGUCAGCAUGUAGCCAGGCAGGGCCGUGUGAGCUUGUGCUGAUGUG; RNA, backbone and methylation of C not given here)”, the Kd in [7] (read-out: affinity for the target modified peptide) is 12 nM. The “selectivity for a similar histone PTM (H3K9Me2)” value in [7] (vs H3K9Me2) is on record as 8.1 fold. Moreover, in [7] (vs unmodified peptide), the “selectivity for the unmodified peptide” value is on record as 3.5 fold.
What is called Km is the substrate concentration at which the rate is half of its maximum. For the molecule `C[S+](CC[C@H](N)C(=O)[O-])C[C@H]1O[C@@H](n2cnc3c(N)ncnc32)[C@H](O)[C@@H]1O` (stereo partly drawn) [SAM, S-adenosylmethionine], the Km on PRMT1 came to 0.014 µM. Besides, the “selectivity for SAH versus SAM (affinity for SAM fold lower)” value in [5] (native riboswitch) was “at least 1000 fold”.
Take `Cn1c(=O)c2[nH]cnc2n(C)c1=O` [theophylline]: the selectivity against caffeine result in data set [8] is recorded as “more than 10^4 fold”.
